From ChEMBL document CHEMBL5724914, “Linking interpersonal differences in gut microbiota composition and drug biotransformation activity” (2024)

Columns and labels:
[1] = human gut metagenome, 24 h, 2 µM
[2] = (§1) The drug is tested on WLS-069 corresponding to human gut metagenome with ENA study accession number: PRJEB37062 and ENA sample accession number: ERS12561748 for biotransformation under anaerobic condition. The drug concentrations were measured over 9 timepoints collected between 0 and 24 hours of incubation by liquid-chromatography-coupled mass spectrometry (LC–MS); details: 2 µM
[3] = as §1, with “Z-023” for “WLS-069”, “to” for “to human gut”, “ERS12561822” for “ERS12561748”; details: 2 µM
[4] = human gut metagenome, 24 h, 2 µM; remark: listed apart in the source
[5] = as §1, with “Z-030” for “WLS-069”, “mouse” for “human”, “ERS12561829” for “ERS12561748”; details: 2 µM
[6] = human gut metagenome, 24 h, 2 µM; remark: listed apart in the source
[7] = human gut metagenome, 24 h, 2 µM; remark: listed apart in the source
[8] = human gut metagenome, 24 h, 2 µM; remark: listed apart in the source
[9] = human gut metagenome, 24 h, 2 µM; remark: listed apart in the source
[10] = human gut metagenome, 24 h, 2 µM; remark: listed apart in the source
[11] = as §1, with “Z-021” for “WLS-069”, “to” for “to human gut”, “ERS12561820” for “ERS12561748”; details: 2 µM
[12] = as §1, with “WLS-007” for “WLS-069”, “ERS12561742” for “ERS12561748”; details: 2 µM
[13] = human gut metagenome, 24 h, 2 µM; remark: listed apart in the source
[14] = human gut metagenome, 24 h, 2 µM; remark: listed apart in the source
[15] = human gut metagenome, 24 h, 2 µM; remark: listed apart in the source
[16] = human gut metagenome, 24 h, 2 µM; remark: listed apart in the source
[17] = as §1, with “Z-007” for “WLS-069”, “rat” for “human”, “ERS12561807” for “ERS12561748”; details: 2 µM
[18] = as §1, with “Z-001” for “WLS-069”, “mouse” for “human”, “ERS12561801” for “ERS12561748”; details: 2 µM
[19] = as §1, with “WLS-077” for “WLS-069”, “ERS12561750” for “ERS12561748”; details: 2 µM
[20] = as §1, with “Z-016” for “WLS-069”, “mouse” for “human”, “ERS12561815” for “ERS12561748”; details: 2 µM
Also: call rule not given here.

Bacterial Biotransformation [1]	Bacterial Biotransformation [2]	Bacterial Biotransformation [3]	Bacterial Biotransformation [4]	Bacterial Biotransformation [5]	Bacterial Biotransformation [6]	Bacterial Biotransformation [7]	Bacterial Biotransformation [8]	Bacterial Biotransformation [9]	Bacterial Biotransformation [10]	Bacterial Biotransformation [11]	Bacterial Biotransformation [12]	Bacterial Biotransformation [13]	Bacterial Biotransformation [14]	Bacterial Biotransformation [15]	Bacterial Biotransformation [16]	Bacterial Biotransformation [17]	Bacterial Biotransformation [18]	Bacterial Biotransformation [19]	Bacterial Biotransformation [20]	Compound
Compound metabolized	Compound metabolized	Compound metabolized	Compound metabolized	Compound NOT metabolized	Compound metabolized	Compound NOT metabolized	Compound NOT metabolized	Compound metabolized	Compound metabolized	Compound NOT metabolized	Compound NOT metabolized	Compound NOT metabolized	Compound metabolized	Compound metabolized	Compound NOT metabolized	Compound NOT metabolized	Compound metabolized	Compound NOT metabolized	Compound metabolized	COc1ccc([C@@H]2Sc3ccccc3N(CCN(C)C)C(=O)[C@@H]2OC(C)=O)cc1 [DILTIAZEM]
Compound NOT metabolized	Compound metabolized	Compound metabolized	Compound metabolized	Compound NOT metabolized	Compound metabolized	Compound metabolized	Compound metabolized	Compound metabolized	Compound metabolized	Compound metabolized	Compound metabolized	Compound metabolized	Compound metabolized	Compound metabolized	Compound NOT metabolized	Compound NOT metabolized	Compound NOT metabolized	Compound metabolized	Compound NOT metabolized	OCCN(CCO)c1nc(N2CCCCC2)c2nc(N(CCO)CCO)nc(N3CCCCC3)c2n1 [DIPYRIDAMOLE]
Compound NOT metabolized	Compound NOT metabolized	Compound NOT metabolized	Compound NOT metabolized	Compound NOT metabolized	Compound NOT metabolized	Compound NOT metabolized	Compound NOT metabolized	Compound NOT metabolized	Compound NOT metabolized	Compound metabolized	Compound NOT metabolized	Compound NOT metabolized	Compound NOT metabolized	Compound NOT metabolized	Compound NOT metabolized	Compound NOT metabolized	Compound NOT metabolized	Compound NOT metabolized	Compound NOT metabolized	CCOc1ccc2nc(S(N)(=O)=O)sc2c1 [ETHOXZOLAMIDE]
Compound metabolized	Compound metabolized	Compound NOT metabolized	Compound metabolized	Compound NOT metabolized	Compound metabolized	Compound metabolized	Compound NOT metabolized	Compound metabolized	Compound metabolized	Compound NOT metabolized	Compound metabolized	Compound NOT metabolized	Compound metabolized	Compound metabolized	Compound NOT metabolized	Compound NOT metabolized	Compound NOT metabolized	Compound NOT metabolized	Compound NOT metabolized	CCc1cccc2c3c([nH]c12)C(CC)(CC(=O)O)OCC3 (stereo not given) [ETODOLAC]
Compound metabolized	Compound metabolized	Compound metabolized	Compound metabolized	Compound NOT metabolized	Compound metabolized	Compound metabolized	Compound metabolized	Compound metabolized	Compound metabolized	Compound NOT metabolized	Compound metabolized	Compound metabolized	Compound metabolized	Compound metabolized	Compound NOT metabolized	Compound metabolized	Compound NOT metabolized	Compound metabolized	Compound NOT metabolized	CC(=O)OCC(CCn1cnc2cnc(N)nc21)COC(C)=O [FAMCICLOVIR]

Compound	Bacterial Biotransformation [1]	Bacterial Biotransformation [2]	Bacterial Biotransformation [3]	Bacterial Biotransformation [4]	Bacterial Biotransformation [5]	Bacterial Biotransformation [6]	Bacterial Biotransformation [7]	Bacterial Biotransformation [8]	Bacterial Biotransformation [9]	Bacterial Biotransformation [10]	Bacterial Biotransformation [11]	Bacterial Biotransformation [12]	Bacterial Biotransformation [13]	Bacterial Biotransformation [14]	Bacterial Biotransformation [15]	Bacterial Biotransformation [16]	Bacterial Biotransformation [17]	Bacterial Biotransformation [18]	Bacterial Biotransformation [19]	Bacterial Biotransformation [20]
COc1cc2nc(N3CCN(C(=O)C4COc5ccccc5O4)CC3)nc(N)c2cc1OC.CS(=O)(=O)O (stereo not given) [DOXAZOSIN MESYLATE]	Compound NOT metabolized	Compound metabolized	Compound metabolized	Compound metabolized	Compound NOT metabolized	Compound NOT metabolized	Compound metabolized	Compound metabolized	Compound NOT metabolized	Compound metabolized	Compound NOT metabolized	Compound metabolized	Compound NOT metabolized	Compound metabolized	Compound metabolized	Compound NOT metabolized	Compound NOT metabolized	Compound NOT metabolized	Compound metabolized	Compound NOT metabolized
CN(C)CCOC(C)(c1ccccc1)c1ccccn1.O=C(O)CCC(=O)O (stereo not given) [DOXYLAMINE SUCCINATE]	Compound NOT metabolized	Compound NOT metabolized	Compound NOT metabolized	Compound NOT metabolized	Compound NOT metabolized	Compound NOT metabolized	Compound NOT metabolized	Compound NOT metabolized	Compound NOT metabolized	Compound NOT metabolized	Compound NOT metabolized	Compound NOT metabolized	Compound NOT metabolized	Compound NOT metabolized	Compound NOT metabolized	Compound NOT metabolized	Compound NOT metabolized	Compound NOT metabolized	Compound NOT metabolized	Compound NOT metabolized
Br.CN1CCC[C@@H]1Cc1c[nH]c2ccc(CCS(=O)(=O)c3ccccc3)cc12 [ELETRIPTAN HYDROBROMIDE]	Compound NOT metabolized	Compound metabolized	Compound NOT metabolized	Compound NOT metabolized	Compound NOT metabolized	Compound metabolized	Compound NOT metabolized	Compound NOT metabolized	Compound metabolized	Compound metabolized	Compound NOT metabolized	Compound metabolized	Compound NOT metabolized	Compound metabolized	Compound metabolized	Compound NOT metabolized	Compound NOT metabolized	Compound NOT metabolized	Compound NOT metabolized	Compound NOT metabolized
